Data: the NIST ThermoML archive (doi:10.1021/je5003225)

Assays:
[1] = Liquid; Ebulliometric method (Recirculating still)
[2] = refractive index (Na D-line) (dimensionless); conditions: 298.15 K; 101.33 kPa; Liquid; Standard Abbe refractometry
[3] = xn = mol fraction of the nth substance listed; conditions: 298.15 K, 101 kPa, Liquid, Vibrating tube method

CCC(C)O (centres undefined) [butan-2-ol]
Conditions	Normal boiling temperature [°C]	refractive index
[1]	99.61	–
[2]	–	1.3949

CCC(C)O (centres undefined) [butan-2-ol] + CCOC(C)=O
[3]
Conditions	mass density [kg/m3]
x2 = 0	802.5
x2 = 0.0415	805.6
x2 = 0.0917	809.5
x2 = 0.1482	813.9
x2 = 0.208	818.7
x2 = 0.257	822.8
x2 = 0.2963	826.2
x2 = 0.3488	830.7
x2 = 0.3914	834.5
x2 = 0.4397	838.9
x2 = 0.4905	843.5
x2 = 0.5313	847.3
x2 = 0.6	853.8
x2 = 0.6539	859
x2 = 0.7031	863.8
x2 = 0.741	867.5
x2 = 0.7953	873
x2 = 0.8528	878.9
x2 = 0.8891	882.6
x2 = 0.9484	889

CCC(C)O (centres undefined) [butan-2-ol] + COC(C)=O
Conditions	mass density [kg/m3]
[3], x2 = 0	802.5

CCOC(C)=O [ethyl acetate] + CCC(C)O
Conditions	mass density [kg/m3]
[3], x1 = 1	894.5

COC(C)=O [methyl ethanoate] + CCC(C)O
[3]
Conditions	mass density [kg/m3]
x1 = 0.058	807.2
x1 = 0.1719	817.3
x1 = 0.2756	827.5
x1 = 0.3391	834.2
x1 = 0.4544	847.3
x1 = 0.4714	849.3
x1 = 0.5051	853.4
x1 = 0.5458	858.5
x1 = 0.593	864.5
x1 = 0.6822	876.6
x1 = 0.799	893.7
x1 = 0.8576	902.9
x1 = 0.8788	906.3
x1 = 0.9586	919.9
x1 = 1	927.3
